Results reported in article PMC7091493 (Journal of medicinal chemistry, 2019).

Experiments:
Type in all cases: biochemical
human i-20S β5i = human i-20S β5i (Homo sapiens, UniProt P20618+P28062); assay: Human immunoproteasome inhibition assay; conditions: for inhibitory potency against human i-20S (in words): qualitative statement, comparison as stated in the sentence
Mtb20S = Mtb20S (Mycobacterium tuberculosis, UniProt P9WHT9); conditions: for inhibitory potency against Mtb20S (in words): qualitative statement, comparison as stated in the sentence
Mtb20S, sequence (P9WHT9 58-291): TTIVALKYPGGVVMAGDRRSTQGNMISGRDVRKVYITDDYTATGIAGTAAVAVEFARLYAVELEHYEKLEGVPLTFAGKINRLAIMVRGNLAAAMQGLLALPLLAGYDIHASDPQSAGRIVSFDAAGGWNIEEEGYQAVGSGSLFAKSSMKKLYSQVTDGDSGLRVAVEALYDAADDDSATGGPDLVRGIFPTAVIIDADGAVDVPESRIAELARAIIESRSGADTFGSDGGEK

human c-20S β5c = human c-20S β5c (Homo sapiens, UniProt P20618+P28074); conditions: qualitative statement; comparison as stated in the sentence

Cc1cc(C(=O)N[C@@H](CC(=O)N2CCCC[C@@H]2C)C(=O)N[C@@H](C)C(=O)NCc2ccc(F)cc2F)no1 [A85]
selectivity for Mtb20S over i-20S β5i (human i-20S β5i): 4 fold | inhibitory potency against Mtb20S (in words) (Mtb20S): maintaining potency

Cc1cc(C(=O)N[C@@H](CC(=O)N2CCC[C@@H]2c2ccccc2)C(=O)N[C@@H](C)C(=O)NCc2ccc(F)cc2F)no1 [A86]
improvement in IC50 values against Mtb20S (Mtb20S; relative to A85): 2.4 fold

Cc1cc(C(=O)N[C@@H](CC(=O)N2CCC[C@@H]2c2ccccc2)C(=O)N[C@@H](C)C(=O)NCc2c(F)cccc2F)no1 [A119]
inhibitory potency against human i-20S (in words) (human i-20S β5i): reduced | inhibitory potency against Mtb20S (in words) (Mtb20S): maintained

COc1ccccc1CNC(=O)[C@H](C)NC(=O)[C@H](CC(=O)N1CCC[C@@H]1c1ccccc1)NC(=O)c1cc(C)on1 [A120]
inhibitory potency against human i-20S (in words) (human i-20S β5i): reduced | inhibitory potency against Mtb20S (in words) (Mtb20S): reduced | inhibitory potency against human c-20S (in words) (human c-20S β5c): reduced

Cc1cc(C(=O)N[C@@H](CC(=O)N2CCCC[C@@H]2C)C(=O)N[C@@H](C)c2ncc(-c3ccccc3)[nH]2)no1 [B1]
inhibitory potency against Mtb20S (in words) (Mtb20S): modest inhibitory activity

Cc1cc(C(=O)N[C@@H](CC(=O)N2CCC[C@@H]2c2ccccc2)C(=O)N[C@@H](C)c2ncc(-c3ccccc3F)[nH]2)no1 [B6]
selectivity for Mtb20S over both c-20S and i-20S (in words) (Mtb20S): markedly selective | inhibitory potency against Mtb20S (in words) (Mtb20S): highly potent

Cc1cc(C(=O)N[C@@H](CC(=O)N2CCC[C@@H]2c2ccccc2)C(=O)N[C@@H](C)c2ncc(-c3ccccc3)[nH]2)no1 [B36]
selectivity for Mtb20S over both c-20S and i-20S (in words) (Mtb20S): markedly selective | inhibitory potency against Mtb20S (in words) (Mtb20S): highly potent

Cc1cc(C(=O)N[C@@H](CC(=O)N2CCC[C@@H]2c2ccccc2)C(=O)N[C@@H](C)c2ncc(-c3ccc(F)cc3F)[nH]2)no1 [B37]
selectivity for Mtb20S over both c-20S and i-20S (in words) (Mtb20S): markedly selective | inhibitory potency against Mtb20S (in words) (Mtb20S): highly potent
